What was measured:
[1] = system: hippocampal slices from 8-month-old 5xFAD mice; test: LTP induction (HFS) in hippocampal Schaffer collateral-CA1 synapses of brain slices, fEPSP recording; assay type: cell-based, mouse; conditions: 100 nM, normalized to baseline, mean ± SEM
Description: Long-term potentiation (LTP) is considered a cellular mechanism for long-term memory. LTP deficits have been reported in AD mouse models including 5xFAD mice. We examined whether C20 could improve synaptic plasticity in hippocampal slices of 5xFAD mice. LTP was induced in hippocampal Schaffer collateral-CA1 synapses by high-frequency stimulation (HFS).
Mouse transcardial perfusion was performed with 0–2 °C of holding buffer containing (in mM): 124 NaCl, 2.5 KCl, 24 NaHCO3, 1.2 NaH2PO4, 5 HEPES, 0.5 CaCl2*2H2O, 10 MgCl2*7H2O, 3 Na-pyruvate, and 12.5 D-glucose. […]
After incubation, the slices were placed in a recording chamber and perfused with a constant flow of recording buffer saturated with carbogen. […] Field excitatory postsynaptic potentials (fEPSPs) were recorded from CA1 stratum radiatum in recording buffer (124 mM NaCl, 2.5 mM KCl, 24 mM NaHCO3, 1.2 mM NaH2PO4, 5 mM HEPES, 2 mM CaCl2*2H2O, 0.8 mM MgCl2*7H2O, and 12.5 mM D-glucose) using borosilicate glass microelectrodes (300–400 kΩ) filled with recording buffer. […] Electrophysiological field responses were amplified and controlled using a Multiclamp 700B (Molecular Devices, Sunnyvale, CA, USA), digitized by Digidata 1440A (Molecular Devices, USA) and analyzed by pClamp 10.6 (Axon Instruments, Union City, California, USA). […] The amplitude and slope of the rising phase of EPSP at a level of 20–80% of the peak amplitude were measured. […]

[2] = In vivo pharmacokinetics in plasma and brain after single i.p. injection; parameters: species or system CD-1 mice; conditions: mice, 10 mg/kg i.p.
Description: Two-month-old CD-1 mice (males) were used for pharmacokinetic studies. CD-1 mice were obtained from Charles River GmbH and housed in the laboratory of bioanalytics of the ChemRar research institute. The number of animals in the study was kept at a minimum in terms of ethical principles and regulatory requirements.
The study was carried out on 20 mice. Five animals constituted the control group, which were not injected with the C20 substance. The remaining 15 animals were divided into 5 groups of 3 animals per time point. At least 12 h before the start of the experiment, the animals were deprived of food with free access to water.
All 15 animals from the experimental groups underwent a single intraperitoneal injection of the C20 formulation at a dose of 10 mg/kg (formulation containing 10% ethanol). After 0.25, 0.5, 1, 2, and 4 h, CO2 euthanasia was performed in each group of animals in accordance with the time point. Blood plasma and brain samples were obtained.
Blood was collected by cardiopuncture in a volume of 0.2 mL into polypropylene tubes containing 20 μL of 5% EDTA. Blood plasma was separated by centrifugation at 10,000 rpm for 10 min.
Pharmacokinetic analysis was performed by a non-compartmental method using the Phoenix WinNonlin 6.3 software package (Pharsight Corporation, Mountain View, CA, USA) and in accordance with SOP-BL-AN-027 “Calculation and analysis of parameters of pharmacokinetic and toxicokinetic studies. Statistical processing of results”.
Analysis of pharmacokinetic parameters was performed using averaged pharmacokinetic curves in the plasma and brain. The main pharmacokinetic parameters were determined:
The intensity of C20 penetration into the brain was assessed in terms of tissue availability (ft):(1) ft=AUCt/AUCk, where AUCt is the area under the pharmacokinetic curve in the tissue; AUCk is the area under the pharmacokinetic curve in blood plasma.

TRPC3 = conditions: cited from earlier work

COc1cc2c(cc1OC)C(c1cc3ccccc3oc1=O)=NC(C)(C)C2 [C20, 3-(3-,4-Dihydro-6,7-dimethoxy-3,3-dimethyl-1-isoquinolinyl)-2H-1-benzopyran-2-one]
average fEPSP slope 30–40 min after HFS ([1]; 8-month-old 5xFAD slices, 5xFAD alone 115.5 ± 3.0%): 149.4 ± 9.7%
average fEPSP slope 30–40 min after HFS ([1]; WT slices, WT alone 168.7 ± 4.8%): 161.4 ± 9.6%
concentration in brain samples after 4 h [2]: 10 ng/g
half-life (t1/2) of elimination from plasma [2]: 31.2 min
half-life (t1/2) of excretion from the brain [2]: 44.4 min
maximum concentration in plasma ([2]; formulation with 10% ethanol): 789 ng/mL
time of maximum concentration (plasma and brain) ([2]; first sampling point): 15 min
index of tissue availability in the brain (ft) in relation to blood plasma ([2]; ft = AUCt/AUCk): 1.05
activation of TRPC3 (TRPC3): does not activate TRPC3
